The numbers were not newly measured in patent US20110262436A1, “TREATMENT METHOD” (Genentech, Inc., priority 2008, published 2011), which cites them from elsewhere.

This data set deals with advanced, treatment-refractory NSCLC. To be noted: phase III trial; cited from earlier work.

Regarding `C#Cc1cccc(Nc2ncnc3cc(OCCOC)c(OCCOC)cc23)c1` [erlotinib, N-(3-ethynylphenyl)-6,7-bis(2-methoxyethoxy)-4-quinazolinamine], the “Survival, erlotinib monotherapy” value is recorded as “significantly prolonged survival”.
